Key:
male Sprague-Dawley rats [1] = assay: Transdermal PT-141 delivery: penile erections, chasing, mounting; assay type: in vivo, rat; conditions: cream, 1 h observation
Procedure: (§1) All behavioral studies were performed from 9:00 am to 4:00 pm at 24±1° C. While the animals were anesthetized with Urethane, the hair in an area of approximately 3.0 cm×3.0 cm in the interscapular region was carefully trimmed using scissors, with caution not to damage the skin (rats with any visible sign of skin damage were not used). Rats were allowed to recover for at least 24 hours before the experiments. One hundred ul cream containing indicated amounts of PT-141 was placed on the exposed skin and spread evenly using the side of a pipet tip.
Testing rats were divided into four groups with each group contain 6 rats.
Immediately after administration, rats were placed into individual polystyrene cages (32 cm long, 30 cm wide, 30 cm high) for behavioral observation. […] According to methods described by Berendsen and Broekkamp (1987, Eur. J. Pharmacol. 135(3):279-87), a penile erection was present when the following is observed: repeated pelvic thrust immediately followed by an upright position, an emerging engorged penis which the rat licks while eating the ejaculate. In addition, chasing was observed when the male moves forward along the female's side with its mouth licking the female's genital area, while mounting was present when the male's both front feet are off the ground and plant on the female's rump without ejaculation (Naby et al., 1992, Horm. Behav. 26:24; Randy et al., 1995, Nature 378:383).

[2] = test system: streptozotocin-induced diabetic rats; assay: Transdermal insulin delivery: serum insulin and blood glucose; assay type: in vivo, rat; conditions: for transdermal activity for delivering insulin compared to TD-1 / Blood Glucose Mean: 500 μg peptide + 70 μg insulin topical; for transdermal activity for delivering insulin compared to TD-1: 5 hrs; for Blood Glucose Mean: 5 hr value as % of the 0 hr value
Procedure: Insulin delivery: In particular, male Wistar rats were given intraperitoneal injection of straptozotocin (60 mg/kg; Sigma-Aldrich, St. Louis, […].) to make these rats in diabetic states. Seven to 10 days post injection blood glucose level was measured using One-Touch Ultra Glucometer (LifeScan, Milpitas, Calif.). The straptozocin-induced (SD-induced) diabetic rats with blood glucose level of over 20 mmol/l (normal rats are between 4 and 6 mmol/l) were selected and randomly assigned to different treatment groups, with 6 rats for each group. […] The SLA/PP is a chemical enhancer combination recently identified from high-throughput screening (Karande et al., […], Nature Biotech. 22:192). Moreover, in other transdermal treatment groups, 100 μl saline was given to each rat in that group. For the subcutaneous treatment group, 14 μg of insulin per rat was injected.
Blood was drawn from the rat tail vein at these time points and assayed for blood glucose as described above and serum insulin by radioimmunoassay (Immunotech, Czech).
Blood glucose and serum insulin were measured before and 5 hrs. after the administration as described above.

hair follicles = assay: Microscopy of skin sections: hair follicle penetration; assay type: in vivo, rat; conditions: for follicular penetration of insulin-FITC: 10 μg insulin-FITC co-administered with enhancer, 2 h, abdominal skin
Procedure: In particular, Insulin-FITC (Xi-an Huacheng, Xi-an, China) was dissolved in a small amount of DMF and subsequently diluted in saline for topical administration (final DMF concentration was <0.2%). […] After 2 hours the skin was carefully cleaned by 70% isopropyl alcohol and harvested by dissecting. The isolated skin was fixed with ice-cold 4% paraformaldehyde in 0.1 M phosphate buffer (PH 7.4) overnight. Following several washes with 10 mM phosphate-buffered saline (PBS PH7.4), skin samples were immersed in PBS containing 4.5% sucrose for 24 hours and then dehydrated in 10 mM PBS containing 30% sucrose till deposition. Floating horizontal and vertical sections with a thickness of 20 μm were obtained on a freezing microtome (CM1900 LEICA, Heidelberger, Nussloch, Germany). Cryosections were mounted onto poly-L-lysine-coated glasses, dried at room temperature and enveloped with 10 μl […] Mounting Medium (Vector Laboratories, Burlingame, Calif.). Fluorescence photomicrographs of the sections were obtained with OLYMPUS IX-70 microscope (OLYMPUS, Tokyo, Japan) using a filter set having excitation and emission length at 490-495 nm and 520-530 nm, respectively.

male Sprague-Dawley rats [3] = assay: Transdermal apomorphine delivery, APO-induced penile erections; assay type: in vivo, rat; conditions: for effect on APO transdermal delivery (APO-induced penile erections): peptide 2.0 mg/kg + APO 0.8 mg/kg, cream, 2 h observation
Procedure: as §1, with “apomorphine (APO)” for “PT-141”
Immediately after administration, rats were placed into individual polystyrene cages (32 cm long, 30 cm wide, 30 cm high) for behavioral observation. […] According to methods described by Berendsen and Broekkamp (1987, Eur. J. Pharmacol. 135(3):279-87), a penile erection was present when the following is observed: repeated pelvic thrust immediately followed by an upright position, an emerging engorged penis which the rat licks while eating the ejaculate.

Male Wistar rats = assay: Phage delivery across trimmed abdominal skin, phage titre in tail-vein blood; assay type: in vivo, rat
Procedure: Phage delivery: Male Wistar rats (180 g to 220 g) were housed at a constant temperature (22° C.) and relative humidity (60%) with a fixed 12 hr. light/dark cycle, and free access to food and water. While the animals were anesthetized with Vrethane (5 ml/kg of 20% solution), the hair in an area of approximately 3.0 cm×3.0 cm on the abdomen was carefully trimmed using scissors, with caution not to damage the skin (rats with any visible sign of skin damage were not used). […] One hour after the phage administration blood was withdrawn from the tail vein and immediately assayed for phage titre according to manufacturer's protocol.

^125I-insulin = molecular target: T1, ^125I-insulin (Sus scrofa, UniProt P01315); assay: Direct interaction between coated TD-1 and ^125I-insulin; assay type: binding, porcine; conditions: up to 1 mg TD-1 per well
T1 construct: purchased Beijing Atom HighTech
T1 sequence (P01315 25-54 limits assumed): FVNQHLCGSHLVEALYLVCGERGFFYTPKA
T1 sequence (P01315 88-108 limits assumed): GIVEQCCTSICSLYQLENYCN
Procedure: After extensive washing with PBST (PBS+0.1% Tween-20), radioactivity was measured with Gamma Radioimmunoassay Counter.

insulin = molecular target: T2, insulin (Sus scrofa, UniProt P01315); assay: ELISA direct interaction between TD-1 and insulin (incl. reverse scheme); assay type: binding, porcine
T2 construct: pharmaceutical-grade (>98%, 30 IU/mg) porcine insulin; purchased Xuzhou Pharmaceuticals
T2 sequence (P01315 25-54 limits assumed): as the sequence (P01315 25-54 limits assumed) above
Procedure: Insulin (100 μg) and a guinea pig anti-porcine insulin antibody (Atom High-Tech, used at 1:1000 dilution), in 100 μl of PBS, was added to each well and incubated for 2 hrs. at 37° C. After washing 6× with PBST, the plate was incubated with 1:2000 dilution of anti-guinea pig IgG conjugated with HRP (Chang-Dao Biotechnology Co. Ltd., Shanghai, China) for 1 hr. at 37° C. The plate was washed 6× with PBST, followed by the addition of 100 μl/well of TMB substrate. After incubation at room temperature for 10 mins and additional of stop solution (1 M H2SO4), absorbance was read at 450/630 nm in an ELISA reader. As a positive control, 1 ng to 1 μg of insulin was coated directly on the plates and was detected by the same procedure as described above. In areverse interaction scheme, ELISA plate wells were coated with 1 μg to 1 mg of insulin, blocked with BSA, incubated with TD-1-AngII fusion peptide (100 μg per well), incubated with rabbit polyclonal antibody against human angiotensin II (Atom High-Tech, used at 1:1000) and 1:2000 of anti-rabbit IgG conjugated with HRP (Zhong Shan Golden Bridge Biotechnology, Beijing, China), and finally assayed by TMB color reactionm using the same protocol as described above. The control for this reverse scheme experiment used 1 μg of TD-1-AngII coated directly to the wells.

[4] = DLS measurements of insulin with or without TD-1; assay type: physicochemical
Procedure: The solutions were transferred to a centrifuge tube and spun for 10 min at 10000 rpm. 40 μl of the supernatant were filtered by ANODISC™ membrane filter with a pore size of 0.02 μm (Whatman International, Maidstone, UK) and taken for DLS measurement using DynaPro™ MS 800 (Wyatt technology Corporation/Protein Solutions, Santa Barbara, Calif.).

[5] = PT-141 160 μg/kg + peptide 240 μg/kg
[6] = peptide topically co-administered with PH-1
[7] = 500 μg TD-1 + 70 μg porcine insulin, topical
[8] = co-administered with 70 μg insulin, 5 hours
[9] = insulin-FITC 10 μg + TD-1, time course
[10] = co-administered TD-1 fixed at 500 μg, 5 hours

In the case of `CCCC[C@H](NC(C)=O)C(=O)N[C@H]1CC(=O)NCCCC[C@@H](C(=O)O)NC(=O)[C@H](Cc2c[nH]c3ccccc23)NC(=O)[C@H](CCCNC(=N)N)NC(=O)[C@@H](Cc2ccccc2)NC(=O)[C@H](Cc2c[nH]cn2)NC1=O` [PT-141, Ac-Nle-Asp-His-D-Phe-Arg-Trp-Lys-OH], the “numbers of PEs, chasing and mounting” value (male Sprague-Dawley rats [1]; PT-141 160 μg/kg alone) is reported as “did not significantly increase”.
In the case of ACNATLPHQCG [AP-1, reference compound], the “elevating serum insulin and lowering blood glucose levels” value ([2]; control enhancer co-administered with 70 μg insulin, topical) is reported as “ineffective”, the “follicular penetration of insulin-FITC” value (hair follicles) is reported as “did not lead to follicular penetration” and the “numbers of PEs, chasing and mounting” value (male Sprague-Dawley rats [1]; [5]) is reported as “did not significantly increase”. For the same molecule, the “effect on APO transdermal delivery (APO-induced penile erections)” value (male Sprague-Dawley rats [3]) was “no effect”, the “transdermal activity relative to phage PH-1” value (Male Wistar rats; 1 hour post topical administration) was “less than 0.2%” and the “effect on transdermal activity of phages carrying the TD-2 peptide (PH-1)” value (Male Wistar rats; [6]) was “no effect”.
In the case of ACSASPSKHCG [TD-24], the “transdermal activity for delivering insulin compared to TD-1” value (shortened to “transdermal activity … compared to TD-1”) [2] is reported as “statistically significant loss of activity” and the “Blood Glucose Mean” value [2] is reported as 82.17%.
In the case of ACSSSASKHCG [TD-3], the “transdermal activity … compared to TD-1” value [2] is reported as “almost completely loss of activity” and the “Blood Glucose Mean” value [2] is reported as 89.80%.
With ACSSSPAKHCG [TD-6] the “transdermal activity … compared to TD-1” value [2] was “statistically significant loss of activity” and the “Blood Glucose Mean” value [2] was 66.65%.
With ACSSSPSAHCG [TD-22] the “transdermal activity … compared to TD-1” value [2] was “statistically significant loss of activity” and the “Blood Glucose Mean” value [2] was 85.90%.
In the case of ACSSSPSDHCG [TD-4], the “transdermal activity … compared to TD-1” value [2] is reported as “almost completely loss of activity” and the “Blood Glucose Mean” value [2] is reported as 89.68%.
For ACSSSPSKACG [TD-23], the “transdermal activity … compared to TD-1” value [2] was “statistically significant loss of activity” and the “Blood Glucose Mean” value [2] was 81.36%.
With ACSSSPSKHCG [TD-1] the “time at which decrease of blood glucose was seen” value [2, 7] was 2 h, the “time of lowest blood glucose level” value [2, 7] was 8 h and the “lowest blood glucose level” value ([2]; 500 μg TD-1 + 70 μg porcine insulin, topical, at 8 hours) was < 25 % of the initial blood glucose level. The “effect on blood glucose or serum insulin level” value ([2]; 500 μg TD-1 alone, without insulin, topical) was “no effect”, the “Blood Glucose Mean” value [2] was 38.68% and the “TD-1 amount at which transdermal-enhancing effect reached maximum” value [2, 8] was > 500 µg. For the same molecule, the “TD-1 amount without significant insulin-elevating and glucose-lowering effect” value [2, 8] was < 20 µg, the “follicular penetration of insulin-FITC” value (hair follicles) was “penetration of insulin-FITC deep into hair follicles” and the “relation of waiting period to extent of follicular penetration of insulin-FITC” value (hair follicles; TD-1 5 min, washed, waiting 0-60 min before insulin-FITC) was “inversely proportional”. The “duration of follicular penetration of insulin-FITC” value (hair follicles; [9]) was “at least 24 hours”, the “earliest time follicular penetration of insulin-FITC detectable” value (hair follicles; [9]) was 30 min and the “time of maximum follicular penetration of insulin-FITC” value (hair follicles; [9]) was 2 h. The “numbers of PEs, chasing and mounting” value (male Sprague-Dawley rats [1]; [5]) was “significantly increased”, the “time at which most PEs occurred” value (male Sprague-Dawley rats [3]; APO 0.8 mg/kg + TD-1 2.0 mg/kg) was “during the second hour” and the “number of PEs” value (male Sprague-Dawley rats [3]; TD-1 0.4 mg/kg + APO 0.8 mg/kg) was “did not significantly increase”. The “transdermal-enhancing effect (number of PEs)” value (male Sprague-Dawley rats [3]; TD-1 0.8, 2.0 and 3.2 mg/kg + APO 0.8 mg/kg) was “reached maximum”, the “effect on APO transdermal delivery (APO-induced penile erections)” value (male Sprague-Dawley rats [3]) was “facilitates transdermal APO delivery” and the “^125I-insulin bound to wells precoated with TD-1” value (^125I-insulin) was “No significant radioactivity above the background level”. For the same molecule, the “direct binding to insulin (conclusion of binding assays)” value (insulin) was “does not bind insulin directly”, the “insulin bound to precoated TD-1” value (insulin; wells coated with increasing amounts of TD-1, 100 μg insulin) was “No significant amount of insulin was found to bind” and the “tested rats in which enhanced transdermal penetration of a control phage was observed” value (Male Wistar rats; co-administered with control phage, data not shown) was 20%. For the same molecule, the “amount that completely abolished the transdermal activity of PH-1” value (Male Wistar rats; [6]) was “over 5 μg” and the “effect on transdermal activity of phages carrying the TD-2 peptide (PH-1)” value (Male Wistar rats; [6]) was “dose-dependent manner”.
In the case of ACSSSSSKHCG [TD-10], the “transdermal activity … compared to TD-1” value [2] is reported as “only a slight, insignificant decrease in activity” and the “Blood Glucose Mean” value [2] is reported as 53.79%.
For CSSSPSKHC [TD-2], the “transdermal activity … compared to TD-1” value [2] was “statistically significant loss of activity” and the “Blood Glucose Mean” value [2] was 68.44%.
With “insulin: pharmaceutical-grade (>98%, 30 IU/mg) porcine insulin (Xuzhou Pharmaceuticals)” the “MW-R Mean” value ([4]; pH 2.0, saline) was 14,585 Da, the “Radius Mean” value ([4]; pH 2.0, saline) was 1.9 nm and the “MW-R Mean” value ([4]; pH 2.0, saline, listed as Ins) was 14585 Da. For the same molecule, the “MW-R Mean” value ([4]; pH 3.0, saline) was 20,343 Da, the “Radius Mean” value ([4]; pH 3.0, saline) was 2.2 nm and the “MW-R Mean” value ([4]; pH 3.0, saline, listed as Ins) was 20343 Da. For the same molecule, the “MW-R Mean” value ([4]; pH 7.0, saline) was 32,328 Da, the “Radius Mean” value ([4]; pH 7.0, saline) was 2.6 nm and the “MW-R Mean” value ([4]; pH 7.0, saline, listed as Ins) was 32328 Da. The “duration of insulin-elevating and glucose-lowering effect” value ([2]; 14 μg insulin, subcutaneous injection) was “less than 5 hours”, the “insulin amount needed to achieve the maximum response” value [2, 10] was ≥ 70 µg and the “insulin amount sufficient to significantly enhance serum insulin and lower blood glucose” value [2, 10] was 35 µg.

From patent US7659252B2, “Transdermal delivery peptides and method of use thereof” (Novomed Technologies, Inc. (Shanghai), priority 2005, dated 2010)
